Patent US8802597B2, “Herbicidal pyrimidines” (E I du Pont de Nemours and Company, priority 2003, dated 2014)
Read-outs that look alike come from different tables or passages of the source.

Columns and labels:
Type in all cases: in vivo
[1] = tested on: barnyardgrass (Echinochloa crus-galli); assay: Test A pre/postemergence
In short: (§1)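 After planting in loam and sand, species received test chemical as preemergence soil spray; postemergence spray went on 2–10 cm plants at 1–2 leaves at the same time. Evaluation: visual injury, ~10 d, 0 no effect to 100 complete control.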

[2] = tested on: giant foxtail (Setaria faberi); assay: Test A pre/postemergence
In short: as §1

[3] = tested on: cocklebur (Xanthium strumarium); assay: Test C pre/postemergence; details: Preemergence
In short: (§2)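 Seeds sown and sprayed preemergence with test compound in non-phytotoxic solvent containing surfactant; postemergence sprays, same formulation, went onto plants 2 to 18 cm tall (1- to 4-leaf stage). Plants held in greenhouse 12 to 14 days, then visually rated against untreated controls on a 0–100 scale (0 no effect, 100 complete control).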

corn (Zea mays) = assay: Test C pre/postemergence; details: Preemergence
In short: as §2

[4] = tested on: velvetleaf (Abutilon theophrasti); assay: Test C pre/postemergence; details: Preemergence, scale 0 to 100, 0 no effect, 100 complete control
In short: as §2

[5] = tested on: crabgrass (Digitaria sanguinalis); assay: Test C pre/postemergence; details: Preemergence
In short: as §2

[6] = tested on: lambsquarters (Chenopodium album); assay: Test C pre/postemergence; details: Preemergence
In short: as §2

[7] = tested on: eastern black nightshade (Solanum ptycanthum); assay: Test C pre/postemergence; details: Preemergence, scale 0 to 100, 0 no effect, 100 complete control
In short: as §2

[8] = tested on: bermudagrass (Cynodon dactylon); assay: Test C pre/postemergence; details: Preemergence
In short: as §2

[9] = tested on: goosegrass (Eleusine indica); assay: Test C pre/postemergence; details: Preemergence
In short: as §2

[10] = Preemergence, 125 g ai/ha, 0 to 100 scale where 0 is no effect and 100 is complete control, approximately ten days
[11] = 16 g ai/ha, scale 0 to 100, 0 no effect, 100 complete control
[12] = 31 g ai/ha, scale 0 to 100, 0 no effect, 100 complete control
[13] = 62 g ai/ha, scale 0 to 100, 0 no effect, 100 complete control
[14] = Postemergence, 125 g ai/ha, 0 to 100 scale (0 no effect, 100 complete control)
[15] = Postemergence, 500 g ai/ha, 0 to 100 scale (0 no effect, 100 complete control)
[16] = Preemergence, 500 g ai/ha, 0 to 100 scale where 0 is no effect and 100 is complete control, approximately ten days

Nc1nc(C2CC2)nc(C(=O)[O-])c1Cl.[Na+] [Compound 77, 6-amino-5-chloro-2-cyclopropyl-4-pyrimidinecarboxylic acid monosodium salt]
pest or weed control at 125 g/ha ([1]; Echinochloa crus-galli, post-emergence, 240 h, Postemergence, 125 g ai/ha, 0 to 100 scale (0 no effect, 100 complete control), read-out: Plant response rating, Barnyardgrass): 90%
pest or weed control at 500 g/ha ([1]; Echinochloa crus-galli, post-emergence, 240 h, Postemergence, 500 g ai/ha, 0 to 100 scale (0 no effect, 100 complete control), read-out: Plant response rating, Barnyardgrass): 90%
pest or weed control at 500 g/ha ([1]; Echinochloa crus-galli, pre-emergence, 240 h, Preemergence, 500 g ai/ha, 0 to 100 scale where 0 is no effect and 100 is complete control, approximately ten days, read-out: Plant response rating, Barnyardgrass): 100%
Plant response rating, Barnyardgrass [1, 10]: 90
Plant response rating, Foxtail, Giant [2, 10]: 75
pest or weed control at 125 g/ha ([2]; Setaria faberi, post-emergence, 240 h, Postemergence, 125 g ai/ha, 0 to 100 scale (0 no effect, 100 complete control), read-out: Plant response rating, Foxtail, Giant): 85%
pest or weed control at 500 g/ha ([2]; Setaria faberi, post-emergence, 240 h, Postemergence, 500 g ai/ha, 0 to 100 scale (0 no effect, 100 complete control), read-out: Plant response rating, Foxtail, Giant): 90%
pest or weed control at 500 g/ha ([2]; Setaria faberi, pre-emergence, 240 h, Preemergence, 500 g ai/ha, 0 to 100 scale where 0 is no effect and 100 is complete control, approximately ten days, read-out: Plant response rating, Foxtail, Giant): 95%
Plant response rating, Cocklebur [3, 11]: 55
Plant response rating, Cocklebur [3, 12]: 70
pest or weed control at 62 g/ha ([3]; Xanthium strumarium, pre-emergence, 62 g ai/ha, scale 0 to 100, 0 no effect, 100 complete control, read-out: Plant response rating, Cocklebur): 80%
pest or weed control at 125 g/ha ([3]; Xanthium strumarium, pre-emergence, 125 g ai/ha, scale 0 to 100, read-out: Plant response rating, Cocklebur): 95%
Plant response rating, Corn (corn (Zea mays); [11]): 0
Plant response rating, Corn (corn (Zea mays); [12]): 0
Plant response rating, Corn (corn (Zea mays); [13]): 0
Plant response rating, Corn (corn (Zea mays); 125 g ai/ha, scale 0 to 100): 35
pest or weed control at 62 g/ha ([4]; Abutilon theophrasti, pre-emergence, 62 g ai/ha, read-out: Plant response rating, Velvetleaf): 85%
Plant response rating, Velvetleaf ([4]; 16 g ai/ha): 10
Plant response rating, Velvetleaf ([4]; 31 g ai/ha): 30
pest or weed control at 31 g/ha ([5]; Digitaria sanguinalis, pre-emergence, 31 g ai/ha, scale 0 to 100, 0 no effect, 100 complete control, read-out: Plant response rating, Crabgrass): 0%
pest or weed control at 62 g/ha ([5]; Digitaria sanguinalis, pre-emergence, 62 g ai/ha, scale 0 to 100, 0 no effect, 100 complete control, read-out: Plant response rating, Crabgrass): 0%
Plant response rating, Crabgrass [5, 11]: 0
Plant response rating, Crabgrass ([5]; 125 g ai/ha, scale 0 to 100): 0
Plant response rating, Lambsquarters [6, 11]: 0
Plant response rating, Lambsquarters [6, 12]: 0
Plant response rating, Lambsquarters ([6]; 125 g ai/ha, scale 0 to 100): 40
Plant response rating, Nightshade ([7]; 16 g ai/ha): 0
Plant response rating, Nightshade ([7]; 31 g ai/ha): 0
Plant response rating, Nightshade ([7]; 62 g ai/ha): 0
pest or weed control at 31 g/ha ([8]; Cynodon dactylon, pre-emergence, 31 g ai/ha, scale 0 to 100, 0 no effect, 100 complete control, read-out: Plant response rating, Bermudagrass): 0%
pest or weed control at 62 g/ha ([8]; Cynodon dactylon, pre-emergence, 62 g ai/ha, scale 0 to 100, 0 no effect, 100 complete control, read-out: Plant response rating, Bermudagrass): 0%
pest or weed control at 125 g/ha ([8]; Cynodon dactylon, pre-emergence, 125 g ai/ha, scale 0 to 100, read-out: Plant response rating, Bermudagrass): 0%
Plant response rating, Bermudagrass [8, 11]: 0
pest or weed control at 31 g/ha ([9]; Eleusine indica, pre-emergence, 31 g ai/ha, scale 0 to 100, 0 no effect, 100 complete control, read-out: Plant response rating, Goosegrass): 0%
pest or weed control at 62 g/ha ([9]; Eleusine indica, pre-emergence, 62 g ai/ha, scale 0 to 100, 0 no effect, 100 complete control, read-out: Plant response rating, Goosegrass): 0%
Plant response rating, Goosegrass [9, 11]: 0
Plant response rating, Goosegrass ([9]; 125 g ai/ha, scale 0 to 100): 0

CCCOC(=O)c1nc(C2CC2)nc(N)c1Cl [Compound 75]
Plant response rating, Barnyardgrass [1, 14]: 85
Plant response rating, Barnyardgrass [1, 15]: 90
Plant response rating, Barnyardgrass [1, 10]: 70
Plant response rating, Barnyardgrass [1, 16]: 95
Plant response rating, Foxtail, Giant [2, 14]: 90
Plant response rating, Foxtail, Giant [2, 15]: 90
Plant response rating, Foxtail, Giant [2, 10]: 75
Plant response rating, Foxtail, Giant [2, 16]: 90
Plant response rating, Cocklebur [3, 11]: 55
Plant response rating, Cocklebur [3, 12]: 90
Plant response rating, Cocklebur [3, 13]: 95
Plant response rating, Cocklebur ([3]; 125 g ai/ha, scale 0 to 100): 100
Plant response rating, Corn (corn (Zea mays); [12]): 0
Plant response rating, Corn (corn (Zea mays); [13]): 30
Plant response rating, Corn (corn (Zea mays); 125 g ai/ha, scale 0 to 100): 65
Plant response rating, Velvetleaf ([4]; 16 g ai/ha): 5
Plant response rating, Velvetleaf ([4]; 31 g ai/ha): 60
Plant response rating, Velvetleaf ([4]; 62 g ai/ha): 85
Plant response rating, Crabgrass [5, 11]: 0
Plant response rating, Crabgrass [5, 12]: 10
Plant response rating, Crabgrass [5, 13]: 20
Plant response rating, Crabgrass ([5]; 125 g ai/ha, scale 0 to 100): 60
Plant response rating, Lambsquarters [6, 11]: 70
Plant response rating, Lambsquarters [6, 12]: 75
Plant response rating, Lambsquarters [6, 13]: 80
Plant response rating, Lambsquarters ([6]; 125 g ai/ha, scale 0 to 100): 100
Plant response rating, Nightshade ([7]; 16 g ai/ha): 0
Plant response rating, Nightshade ([7]; 31 g ai/ha): 50
Plant response rating, Nightshade ([7]; 62 g ai/ha): 70
Plant response rating, Nightshade [7]: 100
Plant response rating, Bermudagrass [8, 11]: 0
Plant response rating, Bermudagrass [8, 12]: 0
Plant response rating, Bermudagrass [8, 13]: 0
Plant response rating, Bermudagrass ([8]; 125 g ai/ha, scale 0 to 100): 20
Plant response rating, Goosegrass [9, 11]: 0
Plant response rating, Goosegrass [9, 12]: 0
Plant response rating, Goosegrass [9, 13]: 0
Plant response rating, Goosegrass ([9]; 125 g ai/ha, scale 0 to 100): 30
